Patent US20230157296A1, “METHODS OF REDUCING FUSARIUM CONTAMINATION” (Taminco BV, priority 2020, published 2023)

Key:
Cavendish banana plants = assay: Musa field soil injection of metam sodium at 30 cm and 60 cm: banana plant growth and stage; assay type: in vivo
Method: (§1) Metam Sodium Application. Metam sodium 510 SL (equivalent to 42% w/w) was applied to soil at the following doses: 0 liters per hectare (L/ha), 750 L/ha, 1500 L/ha, 2250 L/ha, 3000 L/ha.
(§2) Prior to injection, soil was prepared using a rototiller to break the soil structure from 0 cm to 80 cm deep, allowing for the smooth and even injection application by an injection machine. The soil was then leveled and made uniform, and the metam sodium was applied at two depths: 30 cm and 60 cm, using injection methods. The temperature was at a minimum of 10° C. and soil humidity was between 50 and 60% holding capacity, allowing the applied product to transform from metam sodium (liquid) to MITC (gas).
(§3) The application was made using an injection machine wherein the machine lowered shanks and began moving forward such that the shanks lowered to a depth of 60 cm and injectors applied the metam sodium into the soil. When the injection at 60 cm was complete, the process was repeated for the entire field at 30 cm. The treated soil in the field was then sealed using a packer roller (which was part of the injection machinery, located at the back end of the machine), after each application.
Plant Selection and Transplantation. Cavendish banana plants were used for this investigation. In order to avoid plants already contaminated by other soil, all plants were produced in vitro using art-recognized methods. Plants were transplanted into the field 14 days after the final soil reading was taken (21 days after treatment).
Data Gathering. Data were gathered at monthly intervals beginning three months after banana plants were transplanted. A total of three data collection sessions were conducted. Data including the number of leaves, plant height, and girth size were collected.

[1] = tested on: F. oxysporum f. sp. cubense (Foc TR4); assay: Panama disease analysis of soil samples after metam sodium field injection; assay type: in vivo, Fusarium oxysporum f. sp. Cubense Tropical Race 4
Method: as §1, §2, §3
Soil Analysis. Soil samples were obtained at 20, 40, and 60 cm before application and every 24 hours beginning 48 hours after application, for seven days.
Plant Pathology Analysis. Soil samples used for Panama Disease and nematode analyses were aseptically isolated in culture medium and incubated for seven days at room temperature. Organisms were identified as follows: 20 grams of composite soil sample was diluted with 40 mL distilled water (dH2O); 1 drop of Tween 20 detergent was added, and the sample mixed. A 1 mL aliquot was taken from the solution and diluted with 9 mL dH2O; three further serial dilutions were made. From each dilution, 100 µL were spread on solid Komada growth medium (Sun et al., Phytopathology 68: 1672-1673, 1978). Growth could be seen 7 days after inoculation.

[2] = 750 L/ha, six months after treatment
[3] = 1500 L/ha, six months after treatment
[4] = 2250 L/ha, six months after treatment
[5] = 3000 L/ha, six months after treatment

## CNC(=S)[S-].[Na+] [metam sodium, sodium N-methyldithiocarbamate]
Cavendish banana plants; 750 L/ha
  effect on average girth size of banana plant: ~ 1 cm
  increase in average height of banana plant: ~ 5 cm
Cavendish banana plants; [2]
  effect on plants reaching bagging stage: did not have a meaningful effect
  percent of plants at either shooting or bagging stage: 11%
  percent of plants at shooting stage: 9%
Cavendish banana plants; 1500-3000 L/ha
  increase in average girth size of banana plant: 4-6 cm
  increase in average height of banana plant: 20-23 cm
Cavendish banana plants; [3]
  percent of plants at either shooting or bagging stage: 28%
  percent of plants at shooting stage: 10%
Cavendish banana plants; 1500 to 3000 L/ha, six months after treatment
  percent of plants at bagging stage: 11-19%
Cavendish banana plants; [4]
  percent of plants at either shooting or bagging stage: 27%
  percent of plants at shooting stage: 17%
Cavendish banana plants; [5]
  percent of plants at either shooting or bagging stage: 35%
  percent of plants at shooting stage: 22%
Cavendish banana plants; regardless of dose applied
  leaf increase (average number of leaves per banana plant): roughly 1.5 fold
[1]; Day 1, 20 cm, T2 750 L/ha
  Panama Disease F. oxysporum f. sp. cubense: -
[1]; Day 1, 20 cm, T3 1500 L/ha
  Panama Disease F. oxysporum f. sp. cubense: -
[1]; Day 1, 20 cm, T4 2250 L/ha
  Panama Disease F. oxysporum f. sp. cubense: -
[1]; Day 1, 20 cm, T5 3000 L/ha
  Panama Disease F. oxysporum f. sp. cubense: -
[1]; Day 1, 40 cm, T2 750 L/ha
  Panama Disease F. oxysporum f. sp. cubense: -
[1]; Day 1, 40 cm, T3 1500 L/ha
  Panama Disease F. oxysporum f. sp. cubense: -
[1]; Day 1, 40 cm, T4 2250 L/ha
  Panama Disease F. oxysporum f. sp. cubense: -
[1]; Day 1, 40 cm, T5 3000 L/ha
  Panama Disease F. oxysporum f. sp. cubense: -
[1]; Day 1, 60 cm, T2 750 L/ha
  Panama Disease F. oxysporum f. sp. cubense: -
[1]; Day 1, 60 cm, T3 1500 L/ha
  Panama Disease F. oxysporum f. sp. cubense: -
[1]; Day 1, 60 cm, T4 2250 L/ha
  Panama Disease F. oxysporum f. sp. cubense: -
[1]; Day 1, 60 cm, T5 3000 L/ha
  Panama Disease F. oxysporum f. sp. cubense: -
[1]; Day 2, 20 cm, T2 750 L/ha
  Panama Disease F. oxysporum f. sp. cubense: -
[1]; Day 2, 20 cm, T3 1500 L/ha
  Panama Disease F. oxysporum f. sp. cubense: -
[1]; Day 2, 20 cm, T4 2250 L/ha
  Panama Disease F. oxysporum f. sp. cubense: -
[1]; Day 2, 20 cm, T5 3000 L/ha
  Panama Disease F. oxysporum f. sp. cubense: -
[1]; Day 2, 40 cm, T2 750 L/ha
  Panama Disease F. oxysporum f. sp. cubense: -
[1]; Day 2, 40 cm, T3 1500 L/ha
  Panama Disease F. oxysporum f. sp. cubense: -
[1]; Day 2, 40 cm, T4 2250 L/ha
  Panama Disease F. oxysporum f. sp. cubense: -
[1]; Day 2, 40 cm, T5 3000 L/ha
  Panama Disease F. oxysporum f. sp. cubense: -
[1]; Day 2, 60 cm, T2 750 L/ha
  Panama Disease F. oxysporum f. sp. cubense: -
[1]; Day 2, 60 cm, T3 1500 L/ha
  Panama Disease F. oxysporum f. sp. cubense: -
[1]; Day 2, 60 cm, T4 2250 L/ha
  Panama Disease F. oxysporum f. sp. cubense: -
[1]; Day 2, 60 cm, T5 3000 L/ha
  Panama Disease F. oxysporum f. sp. cubense: -
[1]; Day 3, 20 cm, T2 750 L/ha
  Panama Disease F. oxysporum f. sp. cubense: -
[1]; Day 3, 20 cm, T3 1500 L/ha
  Panama Disease F. oxysporum f. sp. cubense: -
[1]; Day 3, 20 cm, T4 2250 L/ha
  Panama Disease F. oxysporum f. sp. cubense: -
[1]; Day 3, 20 cm, T5 3000 L/ha
  Panama Disease F. oxysporum f. sp. cubense: -
[1]; Day 3, 40 cm, T2 750 L/ha
  Panama Disease F. oxysporum f. sp. cubense: -
[1]; Day 3, 40 cm, T3 1500 L/ha
  Panama Disease F. oxysporum f. sp. cubense: -
[1]; Day 3, 40 cm, T4 2250 L/ha
  Panama Disease F. oxysporum f. sp. cubense: -
[1]; Day 3, 40 cm, T5 3000 L/ha
  Panama Disease F. oxysporum f. sp. cubense: -
[1]; Day 3, 60 cm, T2 750 L/ha
  Panama Disease F. oxysporum f. sp. cubense: -
[1]; Day 3, 60 cm, T3 1500 L/ha
  Panama Disease F. oxysporum f. sp. cubense: -
[1]; Day 3, 60 cm, T4 2250 L/ha
  Panama Disease F. oxysporum f. sp. cubense: -
[1]; Day 3, 60 cm, T5 3000 L/ha
  Panama Disease F. oxysporum f. sp. cubense: -
[1]; Day 4, 20 cm, T2 750 L/ha
  Panama Disease F. oxysporum f. sp. cubense: -
[1]; Day 4, 20 cm, T3 1500 L/ha
  Panama Disease F. oxysporum f. sp. cubense: -
